Results: ChEMBL document CHEMBL3871298, “Virtual screening and biophysical studies lead to HSP90 inhibitors” (Bioorg Med Chem Lett, 2017)
Activity calls are given as the source filed them. The rule behind the calls is not given here.

Assays:
[1] = Aqueous solubility of the compound at >100 uM; assay type: physicochemical; details: buffer
[2] = molecular target: T1, Heat shock protein HSP 90-alpha (Homo sapiens, UniProt P07900); test: Binding affinity to human HSP90alpha isoform 1 N-terminal ATP binding domain (9 to 236 residues) expressed in Escherichia coli BL21(DE3) assessed as melting temperature at 100 uM by SYPRO orange dye-based thermal shift assay
[3] = tested on: Saccharomyces cerevisiae; test: Binding affinity to yeast HSP90 N-terminal ATP binding domain by high-throughput virtual screening method
[4] = molecular target: T1, Heat shock protein HSP 90-alpha; test: Binding affinity to 15N-labeled human HSP90alpha isoform 1 N-terminal ATP binding domain (9 to 236 residues) expressed in Escherichia coli BL21(DE3) by 1H-15N HSQC NMR spectroscopy
[5] = molecular target: T1, Heat shock protein HSP 90-alpha; test: Binding affinity to 15N-labeled human HSP90alpha isoform 1 N-terminal ATP binding domain (9 to 236 residues) expressed in Escherichia coli BL21(DE3) assessed as reduction in protein signal intensity at 625 uM by 1H-15N HSQC NMR spectroscopy

| Structure (SMILES) | solubility [1] | Tm [2] [°C] | Activity [3] | Kd [4] [µM] | Activity [5] |
| --- | --- | --- | --- | --- | --- |
| O=c1c2[nH]c3ccccc3c2ncn1CCc1ccc(O)c(O)c1 | Soluble | 36.5 | Active |  |  |
| CCc1cc(C(=O)Cc2ccc(OC)cc2)c(O)cc1O | Soluble | 42.1 | Active | 20 |  |
| O=c1c2[nH]c3ccccc3c2ncn1CCc1c[nH]cn1 | Soluble | 32.3 | Active |  |  |
| CC(NCc1c(O)ccc2c(-c3ccccc3)cc(=O)oc12)C(=O)O (configuration not stated) | Soluble | 32.5 | Active |  |  |
| CCc1cc(-c2n[nH]c(C)c2-c2ccc3c(c2)OCCCO3)c(O)cc1OCC(=O)O | Soluble | 32.2 | Active |  |  |
| O=c1c2[nH]c3ccccc3c2ncn1CCc1ccc(O)cc1 | Insoluble | 30.8 | Active |  |  |
| CCOC(=O)c1ccc(-c2c(-c3cc(CC)c(O)cc3O)n[nH]c2C)o1 | Soluble | 49.8 | Active | 3 |  |
| CC(=O)Nc1ccc(N[C@@H]2O[C@H](CO)[C@@H](O)[C@H]2O)cc1 | Soluble | 31.8 | Active |  |  |
| O=C(Cc1c(O)c2ccccc2[nH]c1=O)NCCO | Soluble | 32.8 | Active |  |  |
| CCCc1cc(C(=O)Cc2ccc(C(=O)OCC)o2)c(O)cc1O | Soluble | 40.3 | Active | 2 |  |
| N=c1oc2cc(O)ccc2cc1C(=O)NCc1ccccc1 | Soluble | 35.5 | Active |  |  |
| O=C(O)COc1cc(OCC(=O)O)c2c(-c3ccccc3)cc(=O)oc2c1 | Soluble | 32.4 | Active |  |  |
| Cc1oc2cc(OCC(=O)NCO)ccc2c(=O)c1-c1ccc2c(c1)OCCCO2 | Soluble | 32.4 | Active |  |  |
| Cc1cc(=O)oc2cc(OCc3ccc(C(=O)O)o3)ccc12 | Soluble | 32.4 | Active |  |  |
| O=C(O)C1Cc2c([nH]c3ccccc23)C(c2ccc(O)c(O)c2)N1 (configuration not stated) | Soluble | 31.3 | Active |  |  |
| CCOC(=O)c1cc2n(c1N)-c1ccccc1C2=O | Soluble | 32.4 | Active |  |  |
| O=C(Cc1ccc2c(c1)OCCCO2)c1ccc(O)c(O)c1O | Soluble | 37.5 | Active | 370 |  |
| Cc1c(OCc2ccc(C(=O)O)o2)ccc2c3c(c(=O)oc12)CCC3 | Soluble | 32.7 | Active |  | Active |
| COc1ccc2[nH]cc(C(=O)CN3C[C@@H]4C[C@@H](C3)c3cccc(=O)n3C4)c2c1 | Soluble | 33.1 | Active |  |  |
| Nc1ncnc2c1ncn2[C@@H]1O[C@H](COP(=O)(O)OP(=O)(O)O)[C@@H](O)[C@H]1O |  | 36.7 |  |  |  |
| CCCc1cc(C(=O)Cc2ccc3c(c2)OCO3)c(O)cc1O | Soluble | 41.7 | Active | > 500 |  |
